Experimental data taken from publication PMC9132363 (Journal of Medicinal Chemistry, 2022).
Read-outs that look alike come from different tables or passages of the source.

Experiments:
[1] = DPPH radical scavenging assay; format: physicochemical
Description: The antioxidant activity was determined by the 2,2-diphenyl-1-picrylhydrazyl hydrate (DPPH) assay.[65]−[67] All the measurements were performed in an 80% MeOH solution, with the final reaction volume being 3 mL. A stock of DPPH solution in DMSO (10^–2 M) was prepared and stored at −20 °C, and the same procedure was performed with the antioxidant solution. Then, the DPPH stock solution was diluted to 2 mL with a final concentration of 150 μM (final volume of 3 mL and final concentration of 100 μM). The antioxidant stock was sequentially diluted to 1 mL at 3, 9, 30, 90, and 300 μM (final volume of 3 mL and final concentrations of 1, 3, 10, 30, and 100 μM). The mixture was incubated at room temperature for 30 min. Once this time had passed, the absorbance was measured in a spectrophotometer at 517 nm. Trolox, caffeic acid, and ferulic acid were used as a standard (1, 3, 10, 30, and 100 μM final concentrations). A blank using 80% MeOH solution instead of the corresponding antioxidant was used in each assay. Two independent measurements of each sample were performed. Data were processed using Origin software, and sigmoidal fitting according to the DoseResp function was performed to extrapolate the IC50 (μM) of each antioxidant.

NRF2 = experiment: 3×ARE-LUC luciferase reporter assay; format: cell-based, human
Description: Transient transfections of HEK293T cells were performed with the expression vectors for TK-Renilla (Promega, Madison, […]) and the expression vector ARE-LUC (Dr. J. Alam, Dept. of Molecular Genetics, Ochsner Clinic Foundation, New Orleans, LA). Cells were seeded on 24-well plates (75,000 cells per well), cultured for 16 h, and transfected using calcium phosphate. Eight hours after transfections, cells were treated with 3 different concentrations of the compounds (6, 20, and 60 μM). […] After 16 h, the cells were lysed and assayed with a dual-luciferase assay system (Promega) according to the manufacturer’s instructions. Relative light units were measured in a GloMax 96 microplate luminometer with dual injectors (Promega).

NRF2 in SH-SY5Y cells = experiment: Subcellular fractionation and immunoblot of NRF2; format: cell-based; conditions: 20 μM, 1, 2 and 4 h
Description: SH-SY5Y cells were seeded in p100 plates (1 × 10^6 cells/plate) and treated with 20 μM compound 1d. Cytosolic and nuclear fractions were prepared as described previously.[71] Briefly, cells were washed with cold PBS and harvested by centrifugation at 1100 rpm for 10 min. The cell pellet was resuspended in 3 pellet volumes of cold buffer A (20 mm HEPES, pH 7.0, 0.15 mm EDTA, 0.015 mm EGTA, 10 mm KCl, 1% Nonidet P-40, 1 mm phenylmethylsulfonyl fluoride, 20 mm NaF, 1 mm sodium pyrophosphate, 1 mm sodium orthovanadate, and 1 μg/mL leupeptin) and incubated in ice for 30 min. Then, the homogenate was centrifuged at 500g for 5 min. The supernatants were taken as the cytosolic fraction. The nuclear pellet was resuspended in 5 volumes of cold buffer B (10 mm HEPES, pH 8.0, 0.1 mm EDTA, 0.1 mm NaCl, 25% glycerol, 1 mm phenylmethylsulfonyl fluoride, 20 mm NaF, 1 mm sodium pyrophosphate, 1 mm sodium orthovanadate, and 1 μg/mL leupeptin). After centrifugation in the same conditions indicated above, the nuclei were resuspended in loading buffer containing 0.5% SDS. […]
(§1) Whole cell lysates were prepared in RIPA-buffer (25 mM Tris-HCl, pH 7.6, 150 mM NaCl, 1 mM EGTA, 1% Igepal, 1% sodium deoxycholate, 0.1% SDS, 1 mM PSMF, 1 mM Na3VO4, 1 mM NaF, 1 μg/mL aprotinin, 1 μg/mL leupeptin, and 1 μg/mL pepstatin). […] Immunoblots were analyzed as described previously.[48] […]

Keap1–/– MEFs = experiment: qRT-PCR of NRF2 target genes in KEAP1-deficient MEFs; format: cell-based, mouse; conditions: 20 μM, 4, 8 and 24 h
Description: Human embryonic kidney (HEK) 293T cells were grown in Dulbecco’s modified Eagle’s medium (DMEM) supplemented with 10% fetal bovine serum and 80 μg/mL gentamycin. Transient transfections were performed with calcium phosphate using reagents from Sigma. The Keap1^–/– mouse embryo fibroblasts (MEFs) and their corresponding wild-type Keap1^+/+ MEFs were kindly provided by Dr. Ken Itoh (Department of Stress Response Science, Center for Advanced Medical Science, Hirosaki University, Japan). MEFs were grown in DMEM supplemented with 10% fetal bovine serum, 1% penicillin/streptomycin, and 2 mm L-glutamine. SH-SY5Y cells were grown in DMEM and Ham’s F12 supplemented with 10% fetal bovine serum (FBS) and 1% penicillin/streptomycin. The medium was changed to serum-free DMEM without antibiotics 16 h before treatments. DMF (cat. no. 242926, Sigma-Aldrich) was used at 20 μM for 16 h.
Total RNA extraction, reverse transcription, and quantitative polymerase chain reaction (PCR) were done as detailed in previous articles.[72] Primer sequences are shown in Supporting Information Table S5. Data analysis was based on the ΔΔCT method with normalization of the raw data to housekeeping genes (Applied Biosystems). All PCRs were performed in triplicates.

SOD1-ALS lymphoblasts = experiment: NRF2 pathway in SOD1-ALS lymphoblasts; format: cell-based, human; conditions: 20 μM, 24 h
Excerpt: Peripheral blood samples of all the individuals enrolled in this study were collected after written informed consent of the patients or their relatives (demographic information is presented in Table 9) to establish the lymphoblastoid cell lines (LCLs), by infecting peripheral blood lymphocytes with the Epstein–Barr virus (EBV), as previously described.[68] Participants or their relatives gave written informed consent. This study was approved by the Hospital Doce de Octubre and the Spanish Council of Higher Research Institutional Review Boards. All patients were diagnosed by applying the revised El Escorial criteria.[69] […] Genetic testing for SOD1, TARDBP, FUS, and C9ORF72 was performed in all cases.
LCLs were grown in suspensions in T flasks, in an RPMI-1640 medium containing 2 mM L-glutamine, 100 μg/mL streptomycin/penicillin, and 10% (v/v) fetal bovine serum (FBS) and maintained in a humidified 5% CO2 incubator at 37 °C.
as §1
Total RNA extraction, reverse transcription, and quantitative polymerase chain reaction (PCR) were done as detailed in previous articles.[72] […]

[2] = Liver microsome stability assay; conditions: human, pooled human liver microsomes, pH 7.4
Description: This assay provides information on the metabolic stability of early drug discovery compounds based on liver microsomes. […] The reaction was initiated by adding NADPH (1 mM final concentration). Aliquots of 150 μL were collected at defined time points (0, 5, 15, 30, and 60 min) and added to cold acetonitrile (150 μL) containing an internal standard (5 μg/mL warfarin) to stop the reaction and precipitate the protein. […] Data were log transformed and represented as half-life. All experiments were conducted in duplicates.

## O=C(CCc1ccc(O)c(O)c1)N1CCCN(S(=O)(=O)c2cccc3cnccc23)CC1 [Compound 1d, 3-(3,4-Dihydroxyphenyl)-1-(4-(isoquinolin-5-ylsulfonyl)-1,4-diazepan-1-yl)propan-1-one]
[1]; 80% MeOH, 30 min, 517 nm, read-out: Radical scavenging activity EC50 (DPPH method)
  EC50: 9.68 µM
[1]; supplementary CSV
  IC50: 10.4 ± 0.7 µM
NRF2; HEK293T, 3×ARE-LUC
  NRF2 induction, CD (concentration needed to double luciferase expression): 1 µM
NRF2; Homo sapiens, 16 h, 20 microM, supplementary CSV, read-out: NRF2 induction @ 20 microM (fold change)
  fold induction at 20 µM: 4.4 ± 0.27
NRF2; Homo sapiens, HEK-293T, 6 µM, HEK293T, 16 h, read-out: Luciferase assay response
  fold induction at 6 µM: 2.5 ± 0.05
NRF2; Homo sapiens, HEK-293T, 20 µM, HEK293T, 16 h, read-out: Luciferase assay response
  fold induction at 20 µM: 4.4 ± 0.27
NRF2; Homo sapiens, HEK-293T, 60 µM, HEK293T, 16 h, read-out: Luciferase assay response
  fold induction at 60 µM: 13.6 ± 1.6
NRF2; in words, 6, 20 and 60 μM
  activation of the NRF2 reporter: dose-dependent activation
NRF2 in SH-SY5Y cells
  subcellular distribution of NRF2: induced a significant accumulation of NRF2 in the nucleus
Keap1–/– MEFs
  expression of HMOX1: to a lesser extent than in the wild-type cells
  expression of NQO1: not capable of inducing
SOD1-ALS lymphoblasts
  HMOX1 and NQO1 levels (mRNA and protein): capable of inducing HMOX1 and NQO1 levels in a very significant way
[2]
  half-life at 1 h, 8 µM: 35.7 min
